By IC50 is commonly meant the concentration needed to halve the response being measured.

Ends that are not written are not given here. Peptide text beside a SMILES is read from it. Some results are limits rather than exact numbers.

This experiment addresses T1, ACE from rabbit lung (Oryctolagus cuniculus, UniProt P12822).
T1 construct: ACE from rabbit lung was purchased from Sigma Chemical Co; purchased Sigma Chemical Co. (St. Louis, MO, USA); host or cells: rabbit lung (tissue-derived)
T1 sequence (P12822 34-1310): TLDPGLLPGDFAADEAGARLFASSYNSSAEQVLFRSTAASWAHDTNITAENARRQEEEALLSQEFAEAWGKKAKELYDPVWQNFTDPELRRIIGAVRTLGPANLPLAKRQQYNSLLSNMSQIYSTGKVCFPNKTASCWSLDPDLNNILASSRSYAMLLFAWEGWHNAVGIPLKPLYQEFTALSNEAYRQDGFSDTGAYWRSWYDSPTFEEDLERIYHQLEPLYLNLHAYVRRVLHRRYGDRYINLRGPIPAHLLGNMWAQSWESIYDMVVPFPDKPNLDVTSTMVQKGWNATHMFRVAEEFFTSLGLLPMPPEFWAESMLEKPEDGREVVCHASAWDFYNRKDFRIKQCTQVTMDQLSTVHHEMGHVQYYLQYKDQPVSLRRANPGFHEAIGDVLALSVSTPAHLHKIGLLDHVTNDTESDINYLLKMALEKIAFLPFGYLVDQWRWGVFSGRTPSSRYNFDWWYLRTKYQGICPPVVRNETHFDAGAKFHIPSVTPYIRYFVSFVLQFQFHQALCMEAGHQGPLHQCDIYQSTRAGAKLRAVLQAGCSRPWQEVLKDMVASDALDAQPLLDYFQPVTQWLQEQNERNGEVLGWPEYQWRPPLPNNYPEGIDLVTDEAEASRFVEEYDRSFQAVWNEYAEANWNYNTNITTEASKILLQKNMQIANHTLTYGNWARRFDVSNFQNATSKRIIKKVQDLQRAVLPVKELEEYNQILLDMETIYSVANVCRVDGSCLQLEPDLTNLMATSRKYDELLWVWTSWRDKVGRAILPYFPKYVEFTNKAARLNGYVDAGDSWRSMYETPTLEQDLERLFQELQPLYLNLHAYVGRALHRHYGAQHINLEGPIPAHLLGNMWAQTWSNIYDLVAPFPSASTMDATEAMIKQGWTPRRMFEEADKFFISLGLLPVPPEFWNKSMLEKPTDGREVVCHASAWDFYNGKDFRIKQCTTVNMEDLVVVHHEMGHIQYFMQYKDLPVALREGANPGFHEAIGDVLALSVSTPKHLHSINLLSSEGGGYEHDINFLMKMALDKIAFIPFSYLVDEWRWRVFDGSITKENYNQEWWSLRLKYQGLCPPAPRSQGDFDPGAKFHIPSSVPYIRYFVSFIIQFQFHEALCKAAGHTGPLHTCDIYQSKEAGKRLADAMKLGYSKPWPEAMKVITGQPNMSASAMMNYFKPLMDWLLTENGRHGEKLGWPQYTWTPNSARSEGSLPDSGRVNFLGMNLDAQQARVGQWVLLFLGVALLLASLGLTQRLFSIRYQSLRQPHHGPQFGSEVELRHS
Briefly: ACE inhibitory assay (Hip-His-Leu). The class given is biochemical. To be noted: IC50 defined as absolute quantity of peptide to inhibit 50% of 1.0 U ACE; pre-incubated 37 °C 5 min; Hip-His-Leu 12.5 mM, 0.1 M sodium borate, 400 mM NaCl, pH 8.3, 37 °C, 1 h; hippuric acid absorbance at 228 nm; read-out: IC50 Value, ACE inhibitory activity of synthetic peptides. The text has this:
ACE from rabbit lung was purchased from Sigma Chemical Co. (St. Louis, MO, USA). Hyppuryl-L-histidyl-L-leucine (Hip-His-Leu), thermolysin (EC 3.4.24.27) from Bacillus thermoproteolyticus, pepsin (EC 3.4.23.1) from porcine stomach, trypsin (EC 3.4.21.4) from bovine pancreas and chymotrypsin (EC 3.4.21.1) from bovine pancreas were purchased from Wako Pure Chemical (Osaka, Japan). Synthetic peptides (purity: 99.4%–99.8%) were purchased from Medical Biological Laboratories Co. (Nagoya, Japan). All other reagents were purchased from Wako Pure Chemical Industries (Osaka, Japan).
ACE inhibitory assay was carried out according to the method of Cheng and Cushman with some modifications. Fifteen microliters of sample solution (5.0 mg/mL) were added to 30 μL of ACE (0.2 units/mL), and the mixture was pre-incubated at 37 °C for 5 min. Thirty microliters of Hip-His-Leu solution (12.5 mM in 0.1 M sodium borate buffer containing 400 mM NaCl at pH 8.3) were added to the mixture. After incubation at 37 °C for 1 h, the reaction was stopped by adding 75 μL of 1.0 M HCl. The released hippuric acid was extracted with 450 μL of ethyl acetate. Four hundred microliters of the upper layer were evaporated, and then the hippuric acid was dissolved in 1.5 mL of distilled water. The absorbance at 228 nm of the solution was measured by a spectrophotometer. The inhibition was calculated from the equation [1 − (As − Asb)/(Ac − Acb)] × 100, where Ac is the absorbance of the buffer, Acb is the absorbance when the stop solution was added to the buffer before the reaction, As is the absorbance of the sample, and Asb is the absorbance when the stop solution was added to the sample before the reaction. In this study, we defined the IC50 as an absolute quantity of peptide to inhibit 50% of 1.0 U ACE.
Turning to FEQDWAS [FEQDWAS], the IC50 was over 2800 nM.
Regarding `CC(C)C[C@H](N)C(=O)N[C@@H](CC(=O)O)C(=O)N[C@@H](Cc1ccc(O)cc1)C(=O)O` [LDY] (H-Leu-Asp-Tyr-OH), the IC50 turned out to be 6100 nM.
Next, `CC(C)C[C@H](N)C(=O)N[C@@H](CCCNC(=N)N)C(=O)N[C@@H](Cc1ccc(O)cc1)C(=O)O` [LRY] (H-Leu-Arg-Tyr-OH): 44 nM.
Take `CC(C)[C@H](N)C(=O)N[C@@H](Cc1ccc(O)cc1)C(=O)N[C@@H](CCCNC(=N)N)C(=O)N[C@H](C(=O)O)[C@@H](C)O` [VYRT] (H-VYRT-OH): the IC50 was 140 nM.
